From ChEMBL document CHEMBL6083238, “Design, synthesis and biological evaluation of novel benzocoumarin derivatives as potent inhibitors of MAO-B activity” (Bioorg Med Chem Lett, 2024)

Columns and labels:
[1] = biological target: T1, MAO-A (amine oxidase [flavin-containing] A) (Homo sapiens, UniProt P21397); test: in vitro; conditions: human MAO-A enzyme, probe p-tyramine
T1 sequence (P21397 whole entry): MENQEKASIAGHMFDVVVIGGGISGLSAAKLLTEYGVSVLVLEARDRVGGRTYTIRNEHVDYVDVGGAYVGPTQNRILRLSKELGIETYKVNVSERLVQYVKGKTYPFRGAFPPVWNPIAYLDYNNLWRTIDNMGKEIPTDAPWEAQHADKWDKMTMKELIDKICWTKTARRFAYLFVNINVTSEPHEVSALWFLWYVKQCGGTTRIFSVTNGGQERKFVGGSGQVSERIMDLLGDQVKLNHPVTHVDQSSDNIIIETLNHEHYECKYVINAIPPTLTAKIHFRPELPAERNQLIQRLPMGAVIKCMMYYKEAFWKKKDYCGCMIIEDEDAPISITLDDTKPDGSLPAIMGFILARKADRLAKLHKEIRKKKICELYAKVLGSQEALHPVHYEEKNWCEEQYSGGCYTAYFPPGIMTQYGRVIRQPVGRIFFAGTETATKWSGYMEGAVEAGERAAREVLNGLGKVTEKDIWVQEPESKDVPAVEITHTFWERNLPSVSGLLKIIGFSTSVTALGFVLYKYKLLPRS
Description: Inhibition of human MAO-A using p-tyramine as substrate at 100 uM by amplex red staining based fluorometric analysis relative to control

[2] = biological target: T2, Amine oxidase [flavin-containing] B (Homo sapiens, UniProt P27338)
T2 sequence (P27338 whole entry): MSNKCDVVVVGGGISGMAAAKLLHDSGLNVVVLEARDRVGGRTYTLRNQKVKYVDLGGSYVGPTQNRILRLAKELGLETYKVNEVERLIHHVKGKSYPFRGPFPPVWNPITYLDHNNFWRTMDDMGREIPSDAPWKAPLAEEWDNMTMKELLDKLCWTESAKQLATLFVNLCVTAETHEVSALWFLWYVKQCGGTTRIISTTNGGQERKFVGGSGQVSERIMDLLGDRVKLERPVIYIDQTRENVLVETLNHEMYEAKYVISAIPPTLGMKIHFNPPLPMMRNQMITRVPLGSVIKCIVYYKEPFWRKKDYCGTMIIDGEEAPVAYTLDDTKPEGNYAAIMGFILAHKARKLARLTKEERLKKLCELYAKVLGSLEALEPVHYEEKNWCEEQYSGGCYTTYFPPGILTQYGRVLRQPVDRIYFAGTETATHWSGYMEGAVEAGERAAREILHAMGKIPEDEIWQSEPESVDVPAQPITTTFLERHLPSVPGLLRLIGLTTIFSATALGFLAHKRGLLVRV
Description: Inhibition of human MAO-B using p-tyramine as substrate by amplex red staining based fluorometric analysis

[3] = biological target: T3, Amine oxidase [flavin-containing] A (Homo sapiens, UniProt P21397)
T3 sequence (P21397 whole entry): T1 sequence (P21397 whole entry)
Description: Inhibition of human MAO-A using p-tyramine as substrate by amplex red staining based fluorometric analysis

COc1ccc(-c2cc3cc4ccccc4cc3oc2=O)cc1OC
inhibition at 100 µM [1]: 36.6% | IC50 [2]: 1.41 µM

CC(=O)Oc1ccc(-c2cc3ccc4ccccc4c3oc2=O)cc1OC(C)=O
IC50 [3]: 78.3 µM | IC50 [2]: 13.9 µM

COc1ccc(-c2cc3cc4ccccc4cc3oc2=O)cc1
inhibition at 100 µM [1]: 3.85% | IC50 [2]: 48.1 µM

COc1ccc(-c2cc3ccc4ccccc4c3oc2=O)cc1OC
inhibition at 100 µM [1]: 24% | IC50 [2]: 0.241 µM

COc1ccc(-c2cc3ccc4ccccc4c3oc2=O)cc1
inhibition at 100 µM [1]: 15.3%

CC(=O)Oc1ccc(-c2cc3cc4ccccc4cc3oc2=O)cc1OC(C)=O
IC50 [3]: 97.2 µM | IC50 [2]: 54.4 µM
